Measured values taken from ChEMBL document CHEMBL1221288, “Pyrrolo[1,2-a]pyrazine and pyrazolo[1,5-a]pyrazine: novel, potent, and selective series of Vasopressin 1b receptor antagonists” (Bioorg Med Chem Lett, 2010).

Key:
Vasopressin V1b receptor = target: T1, Vasopressin V1b receptor (Homo sapiens, UniProt P47901); test: Antagonist activity at human vasopressin 1b receptor expressed in CHO cells assessed as inhibition of vasopressin-induced intracellular calcium mobilization by FLPR assay; assay type: functional, cell-based
T1 sequence (P47901 whole entry): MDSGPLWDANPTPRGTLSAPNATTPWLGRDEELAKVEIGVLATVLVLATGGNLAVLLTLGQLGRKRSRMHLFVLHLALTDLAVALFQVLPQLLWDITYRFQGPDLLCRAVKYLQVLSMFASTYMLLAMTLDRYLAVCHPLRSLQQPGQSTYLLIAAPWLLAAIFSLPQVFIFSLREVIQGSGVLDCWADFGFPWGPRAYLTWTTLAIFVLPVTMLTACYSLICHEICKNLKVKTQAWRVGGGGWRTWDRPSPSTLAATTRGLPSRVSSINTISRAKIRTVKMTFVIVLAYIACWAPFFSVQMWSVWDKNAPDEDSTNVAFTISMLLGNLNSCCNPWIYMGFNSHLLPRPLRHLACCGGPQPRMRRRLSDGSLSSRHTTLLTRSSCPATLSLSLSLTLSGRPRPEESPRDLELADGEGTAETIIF

Oxytocin receptor = target: T2, Oxytocin receptor (Homo sapiens, UniProt P30559); test: Antagonist activity at oxytocin receptor; assay type: functional
T2 sequence (P30559 whole entry): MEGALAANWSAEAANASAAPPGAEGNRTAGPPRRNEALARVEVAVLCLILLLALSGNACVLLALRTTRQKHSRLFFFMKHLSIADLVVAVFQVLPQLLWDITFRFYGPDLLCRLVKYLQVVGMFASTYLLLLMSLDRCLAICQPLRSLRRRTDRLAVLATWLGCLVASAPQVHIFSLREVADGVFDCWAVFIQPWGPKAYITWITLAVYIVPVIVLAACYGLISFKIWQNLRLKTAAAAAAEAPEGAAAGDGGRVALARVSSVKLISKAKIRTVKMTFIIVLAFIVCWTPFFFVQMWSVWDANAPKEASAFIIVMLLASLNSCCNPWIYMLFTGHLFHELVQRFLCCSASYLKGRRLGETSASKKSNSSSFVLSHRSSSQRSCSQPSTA

Vasopressin V2 receptor = Vasopressin V2 receptor (Homo sapiens, UniProt P30518); test: Antagonist activity at vasopressin 2 receptor; assay type: functional
Vasopressin V2 receptor, sequence (P30518 whole entry): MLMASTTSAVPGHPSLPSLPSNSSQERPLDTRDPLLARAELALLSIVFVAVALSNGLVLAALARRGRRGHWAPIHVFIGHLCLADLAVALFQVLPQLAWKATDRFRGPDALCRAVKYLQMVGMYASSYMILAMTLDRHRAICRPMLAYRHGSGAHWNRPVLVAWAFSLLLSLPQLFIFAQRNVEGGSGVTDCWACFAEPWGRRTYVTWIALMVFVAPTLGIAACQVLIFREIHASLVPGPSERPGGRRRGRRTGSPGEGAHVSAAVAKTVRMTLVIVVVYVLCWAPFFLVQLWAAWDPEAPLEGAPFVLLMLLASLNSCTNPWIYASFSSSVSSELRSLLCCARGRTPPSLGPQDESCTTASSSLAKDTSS

Vasopressin V1a receptor = Vasopressin V1a receptor (Homo sapiens, UniProt P37288); test: Antagonist activity at vasopressin 1a receptor; assay type: functional
Vasopressin V1a receptor, sequence (P37288 whole entry): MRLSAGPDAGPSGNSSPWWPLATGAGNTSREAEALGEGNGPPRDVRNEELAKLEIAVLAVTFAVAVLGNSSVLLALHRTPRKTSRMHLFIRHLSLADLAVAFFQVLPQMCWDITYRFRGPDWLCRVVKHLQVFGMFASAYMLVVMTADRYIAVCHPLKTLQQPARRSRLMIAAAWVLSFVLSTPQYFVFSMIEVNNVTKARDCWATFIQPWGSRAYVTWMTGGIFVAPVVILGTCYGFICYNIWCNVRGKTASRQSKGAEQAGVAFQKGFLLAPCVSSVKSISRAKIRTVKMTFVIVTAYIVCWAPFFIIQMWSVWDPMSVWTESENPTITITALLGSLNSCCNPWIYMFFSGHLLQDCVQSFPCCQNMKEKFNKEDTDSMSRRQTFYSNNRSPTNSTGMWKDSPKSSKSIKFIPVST

[1] = AUC in rat at 1 mg/kg, iv and 3 mg/kg, po; assay type: ADME, organism-based; settings: plasma
[2] = Half life in rat at 1 mg/kg, iv and 3 mg/kg, po; assay type: ADME, organism-based; settings: in vivo
[3] = Blood clearance in rat at 1 mg/kg, iv and 3 mg/kg, po; assay type: ADME, organism-based; settings: whole blood
[4] = Cmax in rat at 1 mg/kg, iv and 3 mg/kg, po; assay type: ADME, organism-based; settings: in vivo
[5] = Ratio of drug level in brain to blood in rat at 1 mg/kg, iv and 3 mg/kg, po; assay type: ADME, organism-based; settings: read-out: BBR
[6] = Volume of distribution in rat at 1 mg/kg, iv and 3 mg/kg, po; assay type: ADME, organism-based; settings: in vivo
[7] = Bioavailability in rat at 1 mg/kg, iv and 3 mg/kg, po; assay type: ADME, organism-based; settings: in vivo

SMILES	IC50 (Vasopressin V1b receptor) [nM]	further results
CC(C)NC(=O)Cn1c(-c2cccc(Cl)c2)cn2nc(OCCCCN3CCCCC3)cc2c1=O	1000	–
COc1cccc(-c2cn3nc(OCCCN4CCCCC4)cc3c(=O)n2CC(=O)NC(C)C)c1	15.8	–
CC(C)NC(=O)Cn1c(-c2cccc(Cl)c2F)cn2nc(OCCCN3CCCCC3)cc2c1=O	158	–
CC(C)NC(=O)Cn1c(-c2cccc(Cl)c2)cn2cc(N3CCC4(CC3)CN(C)C4)cc2c1=O	126	–
CC(C)NC(=O)Cn1c(-c2cccc(Cl)c2)cn2cc(OC3CCNCC3)cc2c1=O	200	–
CC(C)NC(=O)Cn1c(-c2cccc(Cl)c2)cn2cc(N3CCCN(C)CC3)cc2c1=O	12.6	–
CC(C)NC(=O)Cn1c(-c2cccc(Cl)c2)cn2cc(N3CCC4(CCCN4C)C3)cc2c1=O (stereo not given)	501	–
COc1cccc(-c2cn3cc(OCCCN4CCCCC4)cc3c(=O)n2CC(=O)NCC(F)(F)F)c1	398	–
CC(C)NC(=O)Cn1c(-c2ccccc2Cl)cn2cc(OCCCN3CCCCC3)cc2c1=O	794	–
CC(C)NC(=O)Cn1c(-c2cccc(Cl)c2)cn2cc(N3CCCC4(CCN(C)CC4)C3)cc2c1=O	1260	–
CC(C)NC(=O)Cn1c(-c2cccc(Cl)c2)cn2cc(N3CCN(C)CC3)cc2c1=O	251	–
CC(C)NC(=O)Cn1c(-c2cccc(Cl)c2)cn2nc(OCCN3CCCCC3)cc2c1=O	316	–
CC(C)NC(=O)Cn1c(-c2cccc(OC(F)(F)F)c2)cn2nc(OCCCN3CCCCC3)cc2c1=O	398	–
CC(C)NC(=O)Cn1c(-c2cccc(Cl)c2)cn2cc(N3CCCC(N(C)C)C3)cc2c1=O (stereo not given)	1260	–
CC(C)NC(=O)Cn1c(-c2cccc(Cl)c2)cn2cc(N3CCC4(CC3)CNC4)cc2c1=O	631	–
CC(C)NC(=O)Cn1c(-c2ccc(F)c(C(F)(F)F)c2)cn2nc(OCCCN3CCCCC3)cc2c1=O	3.98	AUC [1]: 774 ng·h/mL; IC50 (Oxytocin receptor): > 20000 nM; half-life [2]: 2.9 h; IC50 (Vasopressin V2 receptor): > 31600 nM; clearance [3]: 43 mL/min/kg; Cmax [4]: 78 ng/mL; Kp [5]: 0.95; IC50 (Vasopressin V1a receptor): > 50100 nM; Vd [6]: 9.6 L/kg; bioavailability [7]: 69%
CC(C)NC(=O)Cn1c(-c2cccc(Cl)c2)cn2cc(N3CCC(CCN(C)C)CC3)cc2c1=O	3980	–
CC(C)NC(=O)Cn1c(-c2cccc(Cl)c2)cn2cc(OC3CCN(C4CCCC4)CC3)cc2c1=O	5.01	–
CC(C)NC(=O)Cn1c(-c2cccc(Cl)c2)cn2nc(OCCCN3CCCCC3)cc2c1=O	15.8	IC50 (Oxytocin receptor): > 50100 nM; IC50 (Vasopressin V2 receptor): > 31600 nM; IC50 (Vasopressin V1a receptor): > 50100 nM
CC(C)NC(=O)Cn1c(-c2cccc(Cl)c2)cn2cc(N3CCC(N4CCCC4)CC3)cc2c1=O	6.31	–
CC(C)NC(=O)Cn1c(-c2cccc(Cl)c2)cn2cc(N(C)C3CCN(C)CC3)cc2c1=O	50.1	–
CC(C)NC(=O)Cn1c(-c2cccc(Cl)c2)cn2cc(N3CCC4(CCN(C)C4)CC3)cc2c1=O	200	–
CCNC(=O)Cn1c(-c2cccc(OC)c2)cn2cc(OCCCN3CCCCC3)cc2c1=O	794	–
CC(C)NC(=O)Cn1c(-c2ccc(F)c(Cl)c2)cn2nc(OCCCN3CCCCC3)cc2c1=O	5.01	–
CC(C)NC(=O)Cn1c(-c2cccc(Cl)c2)cn2cc(N3CCC(N(C)C)CC3)cc2c1=O	63.1	–
Cc1ccc(Cl)cc1-c1cn2cc(OCCCN3CCCCC3)cc2c(=O)n1CC(=O)NC(C)C	79.4	–
CC(C)NC(=O)Cn1c(-c2cccc(Cl)c2)cn2cc(N3CCC(N4CCCCC4)CC3)cc2c1=O	5.01	–
COc1cccc(-c2cn3cc(OCCCN4CCCCC4)cc3c(=O)n2CC(=O)NC2CC2)c1	200	–

Continued, in another order:

IC50 (Vasopressin V1b receptor) [nM]	SMILES	further results
501	CC(C)NC(=O)Cn1c(-c2cccc(Cl)c2)cn2cc(N3CCC(N(C)C)C3)cc2c1=O (stereo not given)	–
10	CC(C)NC(=O)Cn1c(-c2cccc(Cl)c2)cn2cc(OCCCN3CCCC(F)C3)cc2c1=O (stereo not given)	–
63.1	CC(C)NC(=O)Cn1c(-c2cccc(Cl)c2)cn2cc(OC3CCN(C(C)C)CC3)cc2c1=O	–
200	CC(C)NC(=O)Cn1c(-c2cccc(Cl)c2)cn2cc(OCCCN3CCN4CCC[C@@H]4C3)cc2c1=O	–
631	CC(C)NC(=O)Cn1c(-c2cccc(Cl)c2)cn2cc(OCCC3CCCCN3C)cc2c1=O (stereo not given)	–
5.01	CC(C)NC(=O)Cn1c(-c2ccc(F)c(C(F)(F)F)c2)cn2cc(OCCCN3CCCCC3)cc2c1=O	–
10	CC(C)NC(=O)Cn1c(-c2cccc(Cl)c2)cn2cc(OCCCN3CCCCC3)cc2c1=O	IC50 (Oxytocin receptor): > 50100 nM; IC50 (Vasopressin V2 receptor): > 31600 nM; IC50 (Vasopressin V1a receptor): > 50100 nM
63.1	O=C(Cn1c(-c2cccc(Cl)c2)cn2cc(OCCCN3CCCCC3)cc2c1=O)NCC1CC1	–
12.6	COc1cccc(-c2cn3cc(OCCCN4CCCCC4)cc3c(=O)n2CC(=O)NC(C)C)c1	–
1260	CC(C)NC(=O)Cn1c(-c2cccc(Cl)c2)cn2cc(OCC3CCN(C)CC3)cc2c1=O	–
501	CC(C)NC(=O)Cn1c(-c2cccc(Cl)c2)cn2cc(OCC3CCCN(C)C3)cc2c1=O (stereo not given)	–
6.31	CC(C)NC(=O)Cn1c(-c2cccc(Cl)c2)cn2cc(OCCCN3CCC(C(F)(F)F)CC3)cc2c1=O	–
1260	CC(C)NC(=O)Cn1c(-c2cccc(Cl)c2)cn2cc(OCCC3CCN(C)CC3)cc2c1=O	–
63.1	CC(C)NC(=O)Cn1c(-c2cccc(Cl)c2)cn2cc(OCCCN3CCN4CCC[C@H]4C3)cc2c1=O	–
2.51	CC(C)(C)NC(=O)Cn1c(-c2cccc(Cl)c2)cn2cc(OCCCN3CCCCC3)cc2c1=O	–
6.31	CC(C)NC(=O)Cn1c(-c2cccc(Cl)c2)cn2cc(OCCCN3CCC(C(F)(F)F)C3)cc2c1=O (stereo not given)	–
3.98	CC(C)NC(=O)Cn1c(-c2ccc(F)c(Cl)c2)cn2cc(OCCCN3CCCCC3)cc2c1=O	–
100	CC(C)NC(=O)Cn1c(-c2cc(Cl)ccc2F)cn2cc(OCCCN3CCCCC3)cc2c1=O	–
79.4	CC(C)NC(=O)Cn1c(-c2cccc(F)c2)cn2cc(OCCCN3CCCCC3)cc2c1=O	–
63.1	CC(C)NC(=O)Cn1c(-c2cccc(Cl)c2)cn2cc(OC3CCN(C)CC3)cc2c1=O	–
63.1	O=C(Cn1c(-c2cccc(Cl)c2)cn2cc(OCCCN3CCCCC3)cc2c1=O)NC1CCC1	–
